Source: patent US11000033B2, “Ketone or oxime compound, and herbicide” (NISSAN CHEMICAL CORPORATION, priority 2014, dated 2021)

Columns and labels:
Type in all cases: in vivo
[1] = test system: Echinochloa oryzacola Vasing.; assay: Test Example 1: herbicidal activity, application before weed generation in submerged conditions (symbol A); details: application herbicide amount 320 g/ha
Outline: (§1)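 Paddy pre-emergence test. Formulated emulsion, water-diluted to a predetermined rate, is applied to floodwater on sowing day; rice transplanted at 2.5 leaves. Effect read at 3 weeks on a 0–5 herbicidal-ratio scale.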

[2] = test system: Scirpus juncoides; assay: Test Example 1: herbicidal activity, application before weed generation in submerged conditions (symbol B); details: application herbicide amount 320 g/ha
Outline: as §1

[3] = test system: Monochoria vaginalis; assay: Test Example 1: herbicidal activity, application before weed generation in submerged conditions (symbol C); details: application herbicide amount 320 g/ha
Outline: as §1

[4] = test system: transplanted rice plant; assay: Test Example 1: effect on crop, application before weed generation in submerged conditions (symbol a); details: application herbicide amount 320 g/ha
Outline: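 Alluvial soil pots flooded to 4 cm water, sown with Echinochloa oryzacola, Scirpus juncoides and Monochoria vaginalis, then transplanted with 2.5 leaf stage rice seedlings; pre-emergence application. Greenhouse 25° C. to 30° C.; scored 0–5 by herbicidal ratio 3 weeks after application.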

[5] = test system: Scirpus juncoides; assay: Test Example 2: herbicidal activity, application during weed generation in submerged conditions (symbol B); details: Table 23; application herbicide amount 320 g/ha; grade 0-5 by criteria of Test Example 1
Outline: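 Treatment timing was the one- to two-leaf stage, with diluted emulsifiable compound dropped onto the paddy water (depth 4 cm) over alluvial soil. All three species grew from a mixed sowing in a 25° C. to 30° C. greenhouse. Injury was judged by eye 3 weeks on.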

[6] = test system: Setaria viridis; assay: Test Example 4: herbicidal effect by soil treatment (symbol G)
Outline: (§2)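 Seeds were sown in sterilized diluvial soil, covered with about 1.5 cm of soil, and the soil surface was sprayed with a water-diluted emulsion of the compound at a predetermined rate. Plants grew in a greenhouse at 25° C. to 30° C.; effects were scored visually 3 weeks after application.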

[7] = test system: Alopecurus myosuroides; assay: Test Example 4: herbicidal effect by soil treatment (symbol J)
Outline: as §2

[8] = test system: beet; assay: Test Example 4: effect on crop by soil treatment (symbol f); details: for f: beet, effect grade on crop: 320 g/ha
Outline: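 Steps: fill box with sterilized diluvial soil; sow seed spot-like; cover with ~1.5 cm soil; grow in greenhouse (25° C. to 30° C.).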

[9] = test system: Echinochloa crus-galli var. crus-galli; assay: Test Example 5: herbicidal effect by foliage application, plastic box (symbol H); details: 320 g/ha, 3 weeks after application
Outline: (§3)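 Visual herbicidal score, taken three weeks post-application, of seedlings sprayed on the foliage with water-diluted emulsion at a predetermined amount; plants were 14 days old, greenhouse-raised at 25° C. to 30° C.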

[10] = test system: Alopecurus myosuroides; assay: Test Example 5: herbicidal effect by foliage application, plastic box (symbol J); details: 320 g/ha, 3 weeks after application
Outline: as §3

[11] = test system: soybean; assay: Test Example 5: effect on crop by foliage application, plastic box (symbol d); details: 320 g/ha, 3 weeks after application
Outline: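 Plants were raised from seed in a greenhouse (25° C. to 30° C.) after sowing in a plastic box of sterilized diluvial soil.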

[12] = application herbicide amount 320 g/ha

| SMILES | Herbicidal effect grade, A: Echinochloa oryzacola Vasing. [1] | Herbicidal effect grade, B: Scirpus juncoides [2] | Herbicidal effect grade, C: Monochoria vaginalis [3] | Effect grade on crop, a: transplanted rice plant [4] | Herbicidal effect grade, B: Scirpus juncoides [5] | G (Setaria viridis) herbicidal effect grade [6, 12] | J (Alopecurus myosuroides) herbicidal effect grade [7, 12] | f (beet) effect on crop grade [8, 12] | H: Echinochloa crus-galli var. crus-galli, herbicidal effect grade [9] | J: Alopecurus myosuroides, herbicidal effect grade [10] | d: soybean, effect on crop grade [11] | G: Setaria viridis, herbicidal effect grade ([6]; 320 g/ha) | J: Alopecurus myosuroides, herbicidal effect grade ([7]; 320 g/ha) | f: beet, effect grade on crop [8] | H: Echinochloa crus-galli var. crus-galli, herbicidal effect (criteria 0-5) [9] | J: Alopecurus myosuroides, herbicidal effect (criteria 0-5) [10] | d: soybean, effect on crop (criteria 0-5) [11] | G: Setaria viridis, herbicidal effect grade [6, 12] | J: Alopecurus myosuroides, herbicidal effect grade [7, 12] | f: beet, effect on crop grade [8, 12] |
| --- | --- | --- | --- | --- | --- | --- | --- | --- | --- | --- | --- | --- | --- | --- | --- | --- | --- | --- | --- | --- |
| CON=C(C)CC1CC(OCCSC)=C(c2c(C)cc(C)cc2C)C1=O (centres unmarked) [1-011] | 0 (Herbicidal ratio of 5% or lower (almost no effect)) | 0 (Herbicidal ratio of 5% or lower (almost no effect)) | 0 (Herbicidal ratio of 5% or lower (almost no effect)) | 0 (Herbicidal ratio of 5% or lower (almost no effect)) | 0 (Herbicidal ratio of 5% or lower (almost no effect)) | 0 (Herbicidal ratio of 5% or lower (almost no effect)) | 0 (Herbicidal ratio of 5% or lower (almost no effect)) | 0 (Herbicidal ratio of 5% or lower (almost no effect)) | 0 (Herbicidal ratio of 5% or lower (almost no effect)) | 4 (Herbicidal ratio of 70% or higher and lower than 90%) | 0 (Herbicidal ratio of 5% or lower (almost no effect)) | – | – | – | – | – | – | – | – | – |
| CON=C(C)CC1CC(OCC(=O)OC)=C(c2c(C)cc(C)cc2C)C1=O (centres unmarked) [1-012] | 0 (Herbicidal ratio of 5% or lower (almost no effect)) | 0 (Herbicidal ratio of 5% or lower (almost no effect)) | 0 (Herbicidal ratio of 5% or lower (almost no effect)) | 0 (Herbicidal ratio of 5% or lower (almost no effect)) | 0 (Herbicidal ratio of 5% or lower (almost no effect)) | 0 (Herbicidal ratio of 5% or lower (almost no effect)) | 0 (Herbicidal ratio of 5% or lower (almost no effect)) | 0 (Herbicidal ratio of 5% or lower (almost no effect)) | 0 (Herbicidal ratio of 5% or lower (almost no effect)) | 0 (Herbicidal ratio of 5% or lower (almost no effect)) | 0 (Herbicidal ratio of 5% or lower (almost no effect)) | – | – | – | – | – | – | – | – | – |
| CON=C(C)CC1CC(OCC#N)=C(c2c(C)cc(C)cc2C)C1=O (centres unmarked) [1-013] | 0 (Herbicidal ratio of 5% or lower (almost no effect)) | 0 (Herbicidal ratio of 5% or lower (almost no effect)) | 0 (Herbicidal ratio of 5% or lower (almost no effect)) | 0 (Herbicidal ratio of 5% or lower (almost no effect)) | 0 (Herbicidal ratio of 5% or lower (almost no effect)) | 0 (Herbicidal ratio of 5% or lower (almost no effect)) | 0 (Herbicidal ratio of 5% or lower (almost no effect)) | 0 (Herbicidal ratio of 5% or lower (almost no effect)) | 0 (Herbicidal ratio of 5% or lower (almost no effect)) | 4 (Herbicidal ratio of 70% or higher and lower than 90%) | 0 (Herbicidal ratio of 5% or lower (almost no effect)) | – | – | – | – | – | – | – | – | – |
| CON=C(C)CC1CC(OS(=O)(=O)CCCCl)=C(c2c(C)cc(C)cc2C)C1=O (centres unmarked) [1-142] | 5 (Herbicidal ratio of 90% or more (almost completely withered)) | 5 (Herbicidal ratio of 90% or more (almost completely withered)) | 2 (Herbicidal ratio of 20% or higher and lower than 40%) | 5 (Herbicidal ratio of 90% or more (almost completely withered)) | 4 (Herbicidal ratio of 70% or higher and lower than 90%) | – | – | – | – | – | – | 5 (Herbicidal ratio of 90% or more (almost completely withered)) | 5 (Herbicidal ratio of 90% or more (almost completely withered)) | 0 (Herbicidal ratio of 5% or lower (almost no effect)) | 5 (Herbicidal ratio of 90% or more (almost completely withered)) | 5 (Herbicidal ratio of 90% or more (almost completely withered)) | 3 (Herbicidal ratio of 40% or higher and lower than 70%) | – | – | – |
| CON=C(C)CC1CC(OS(=O)(=O)C2CC2)=C(c2c(C)cc(C)cc2C)C1=O (centres unmarked) [1-143] | 4 (Herbicidal ratio of 70% or higher and lower than 90%) | 4 (Herbicidal ratio of 70% or higher and lower than 90%) | 1 (Herbicidal ratio of 5% or higher and lower than 20%) | 5 (Herbicidal ratio of 90% or more (almost completely withered)) | 4 (Herbicidal ratio of 70% or higher and lower than 90%) | – | – | – | – | – | – | 1 (Herbicidal ratio of 5% or higher and lower than 20%) | 2 (Herbicidal ratio of 20% or higher and lower than 40%) | 0 (Herbicidal ratio of 5% or lower (almost no effect)) | 5 (Herbicidal ratio of 90% or more (almost completely withered)) | 5 (Herbicidal ratio of 90% or more (almost completely withered)) | 1 (Herbicidal ratio of 5% or higher and lower than 20%) | – | – | – |
| CC(=O)C(C(C)=O)C1CC(O)=C(c2c(C)cc(C)cc2C)C1=O (centres unmarked) [2-002] | 0 (Herbicidal ratio of 5% or lower (almost no effect)) | 0 (Herbicidal ratio of 5% or lower (almost no effect)) | 0 (Herbicidal ratio of 5% or lower (almost no effect)) | 0 (Herbicidal ratio of 5% or lower (almost no effect)) | 0 (Herbicidal ratio of 5% or lower (almost no effect)) | – | – | – | 3 (Herbicidal ratio of 40% or higher and lower than 70%) | 4 (Herbicidal ratio of 70% or higher and lower than 90%) | 0 (Herbicidal ratio of 5% or lower (almost no effect)) | 0 (Herbicidal ratio of 5% or lower (almost no effect)) | 0 (Herbicidal ratio of 5% or lower (almost no effect)) | 0 (Herbicidal ratio of 5% or lower (almost no effect)) | – | – | – | – | – | – |
| CCCC(=O)C(C(=O)OC)C1CC(O)=C(c2c(C)cc(C)cc2C)C1=O (centres unmarked) [2-020] | 2 (Herbicidal ratio of 20% or higher and lower than 40%) | 0 (Herbicidal ratio of 5% or lower (almost no effect)) | 0 (Herbicidal ratio of 5% or lower (almost no effect)) | 3 (Herbicidal ratio of 40% or higher and lower than 70%) | 0 (Herbicidal ratio of 5% or lower (almost no effect)) | – | – | – | 4 (Herbicidal ratio of 70% or higher and lower than 90%) | 4 (Herbicidal ratio of 70% or higher and lower than 90%) | 0 (Herbicidal ratio of 5% or lower (almost no effect)) | – | – | – | – | – | – | 5 (Herbicidal ratio of 90% or more (almost completely withered)) | 0 (Herbicidal ratio of 5% or lower (almost no effect)) | 0 (Herbicidal ratio of 5% or lower (almost no effect)) |
